How the values were obtained:
[1] = biological target: T1, Glutamate receptor 1 (Rattus norvegicus, UniProt P19490); assay: Antagonist activity against rat GluR1 flop expressed in Xenopus laevis oocyte assessed as inhibition of glutamate-induced current at holding potential -100 mV by two electrode voltage clamp method; assay type: functional
[2] = biological target: T1, Glutamate receptor 1; assay: Antagonist activity against rat GluR1 flop expressed in Xenopus laevis oocyte assessed as inhibition of glutamate-induced current at holding potential -80 mV by two electrode voltage clamp method; assay type: functional
[3] = biological target: T2, Glutamate receptor ionotropic, AMPA (Rattus norvegicus, UniProt P19490+P19491+P19492+P19493); assay: Antagonist activity against rat brain AMPA receptor expressed in Xenopus laevis oocyte assessed as inhibition of kainate-induced current at holding potential -80 mV by two electrode voltage clamp method; assay type: functional
[4] = biological target: T1, Glutamate receptor 1; assay: Antagonist activity against rat GluR1 flop expressed in Xenopus laevis oocyte assessed as inhibition of glutamate-induced current at holding potential -60 mV by two electrode voltage clamp method; assay type: functional
[5] = biological target: T2, Glutamate receptor ionotropic, AMPA; assay: Antagonist activity against rat brain AMPA receptor expressed in Xenopus laevis oocyte assessed as inhibition of kainate-induced current by two electrode voltage clamp method at holding potential -60 mV
[6] = biological target: T2, Glutamate receptor ionotropic, AMPA; assay: Antagonist activity against rat brain AMPA receptor expressed in Xenopus laevis oocyte assessed as inhibition of kainate-induced current by two electrode voltage clamp method at holding potential -100 mV
[7] = biological target: T2, Glutamate receptor ionotropic, AMPA; assay: Antagonist activity against rat brain AMPA receptor expressed in Xenopus laevis oocyte assessed as inhibition of kainate-induced current by two electrode voltage clamp method at holding potential -40 mV

T1 sequence (P19490 whole entry): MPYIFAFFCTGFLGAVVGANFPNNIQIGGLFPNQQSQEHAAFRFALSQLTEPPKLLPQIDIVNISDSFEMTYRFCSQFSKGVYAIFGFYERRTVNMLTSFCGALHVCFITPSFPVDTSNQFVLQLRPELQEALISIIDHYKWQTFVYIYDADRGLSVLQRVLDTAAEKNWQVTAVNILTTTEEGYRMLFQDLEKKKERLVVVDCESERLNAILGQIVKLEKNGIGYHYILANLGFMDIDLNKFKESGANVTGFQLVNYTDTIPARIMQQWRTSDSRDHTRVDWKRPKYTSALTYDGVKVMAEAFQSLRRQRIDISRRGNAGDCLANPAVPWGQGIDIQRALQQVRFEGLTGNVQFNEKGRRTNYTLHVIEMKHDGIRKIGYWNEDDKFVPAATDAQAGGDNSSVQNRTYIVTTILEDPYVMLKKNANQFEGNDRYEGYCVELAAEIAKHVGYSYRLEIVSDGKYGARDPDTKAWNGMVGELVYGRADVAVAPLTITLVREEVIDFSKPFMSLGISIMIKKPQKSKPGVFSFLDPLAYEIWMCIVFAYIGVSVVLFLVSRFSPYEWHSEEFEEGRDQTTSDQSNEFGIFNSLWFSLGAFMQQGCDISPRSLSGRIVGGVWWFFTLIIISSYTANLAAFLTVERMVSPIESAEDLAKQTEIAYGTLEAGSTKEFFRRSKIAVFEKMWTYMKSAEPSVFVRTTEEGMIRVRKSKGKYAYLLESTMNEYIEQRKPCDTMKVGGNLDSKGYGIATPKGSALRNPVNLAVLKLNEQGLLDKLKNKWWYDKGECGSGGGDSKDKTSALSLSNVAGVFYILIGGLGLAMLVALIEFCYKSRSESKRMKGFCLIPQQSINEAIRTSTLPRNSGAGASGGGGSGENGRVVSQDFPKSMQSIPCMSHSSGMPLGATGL

**Q.** Which Ki [1] does the source give for CCCC(=O)N[C@@H](Cc1ccc(O)cc1)C(=O)NCCCCCNCCCCCN here?
**A.** The Ki was 0.013 µM.

**Q.** What about the Ki [2] of the same compound?
**A.** Its Ki is 0.095 µM.

**Q.** What about the IC50 [3] of the same compound?
**A.** The IC50 was 0.207 µM.

**Q.** What about the Ki [4] of the same compound?
**A.** The Ki was 0.46 µM.

**Q.** How did the IC50 [5] turn out when CCCC(=O)N[C@@H](Cc1ccc(O)cc1)C(=O)NCCCCNCCCCCCCN was run?
**A.** The IC50 was 0.0601 µM.

**Q.** And the IC50 [6]?
**A.** Its IC50 is 0.0033 µM.

**Q.** And the Ki [2]?
**A.** Its Ki is 0.038 µM.

**Q.** What about the IC50 [7] of the same compound?
**A.** The IC50 was 0.176 µM.

**Q.** What about the IC50 [3] of the same compound?
**A.** Its IC50 is 0.016 µM.

**Q.** With CCCC(=O)N[C@@H](Cc1ccc(O)cc1)C(=O)NCCCCNCCCCCCN as the compound, how does the Ki [2] read?
**A.** Its Ki is 0.053 µM.

**Q.** What about the IC50 [3] of the same compound?
**A.** Its IC50 is 0.324 µM.

**Q.** What does the source list for CCCC(=O)N[C@@H](Cc1ccc(O)cc1)C(=O)NCCCNCCCCCCCCN?
**A.** Ki [2]: 0.35 µM; IC50 [3]: 0.248 µM

**Q.** For CCCC(=O)N[C@@H](Cc1ccc(O)cc1)C(=O)NCCCCCCCNCCCCCCN, which Ki [2] is on record?
**A.** Its Ki is 0.208 µM.

**Q.** And the IC50 [3]?
**A.** The IC50 was 0.045 µM.

**Q.** Which results are given for CCCC(=O)N[C@@H](Cc1ccc(O)cc1)C(=O)NCCCNCCCCCCN?
**A.** Ki [2]: 0.126 µM; IC50 [3]: 0.547 µM

**Q.** Which Ki [2] does the source give for CCCC(=O)N[C@@H](Cc1ccc(O)cc1)C(=O)NCCCCCCNCCCCCCN here?
**A.** The Ki was 0.685 µM.

**Q.** And the IC50 [3]?
**A.** The IC50 was 0.27 µM.

**Q.** What does the source list for CCCC(=O)N[C@@H](Cc1ccc(O)cc1)C(=O)NCCCCCNCCCCN?
**A.** Ki [1]: 0.013 µM; Ki [2]: 0.068 µM; IC50 [3]: 0.283 µM; Ki [4]: 0.45 µM

**Q.** Which results are given for CCCC(=O)N[C@@H](Cc1ccc(O)cc1)C(=O)NCCCCCNCCCCCCCCCCN?
**A.** Ki [1]: 0.026 µM; Ki [2]: 0.18 µM; Ki [4]: 1.2 µM

**Q.** Which results are given for CCCC(=O)N[C@@H](Cc1ccc(O)cc1)C(=O)NCCNCCCCCCN?
**A.** Ki [2]: 0.208 µM; IC50 [3]: 0.31 µM

**Q.** CCCC(=O)N[C@@H](Cc1ccc(O)cc1)C(=O)NCCCCCNCCCCCCCCCN was tested. Which Ki [1] did it give?
**A.** The Ki was 0.065 µM.

**Q.** What about the Ki [2] of the same compound?
**A.** The Ki was 0.45 µM.

**Q.** And the IC50 [3]?
**A.** Its IC50 is 0.798 µM.

**Q.** And the Ki [4]?
**A.** The Ki was 5 µM.

**Q.** With CCCC(=O)N[C@@H](Cc1ccc(O)cc1)C(=O)NCCCCCNCCCCCCN as the compound, how does the Ki [1] read?
**A.** Its Ki is 0.01 µM.

**Q.** And the Ki [2]?
**A.** The Ki was 0.003 µM.

**Q.** What about the IC50 [3] of the same compound?
**A.** The IC50 was 0.087 µM.

**Q.** And the Ki [4]?
**A.** Its Ki is 0.66 µM.

**Q.** CCCC(=O)N[C@@H](Cc1ccc(O)cc1)C(=O)NCCCCCNCCCCCCCCCCCCN was tested. Which Ki [1] did it give?
**A.** The Ki was 0.077 µM.

**Q.** What about the Ki [2] of the same compound?
**A.** The Ki was 0.48 µM.

**Q.** What about the Ki [4] of the same compound?
**A.** Its Ki is 3.1 µM.

**Q.** CCCC(=O)N[C@@H](Cc1ccc(O)cc1)C(=O)NCCCCCCCCNCCCCCCN was tested. Which Ki [2] did it give?
**A.** The Ki was 0.077 µM.

**Q.** And the IC50 [3]?
**A.** Its IC50 is 0.025 µM.

**Q.** CCCC(=O)N[C@@H](Cc1ccc(O)cc1)C(=O)NCCCCCNCCCCCCCN was tested. Which Ki [1] did it give?
**A.** The Ki was 0.01 µM.

**Q.** What about the Ki [2] of the same compound?
**A.** Its Ki is 0.11 µM.

**Q.** What about the IC50 [3] of the same compound?
**A.** The IC50 was 0.127 µM.

**Q.** What about the Ki [4] of the same compound?
**A.** The Ki was 1.1 µM.

**Q.** What does the source list for CCCC(=O)N[C@@H](Cc1ccc(O)cc1)C(=O)NCCCCCCNCCCCCN?
**A.** Ki [2]: 0.468 µM; IC50 [3]: 0.388 µM

**Q.** Which results are given for CCCC(=O)N[C@@H](Cc1ccc(O)cc1)C(=O)NCCCCCCCCNCCCN?
**A.** Ki [2]: 0.065 µM; IC50 [3]: 0.039 µM

**Q.** CCCC(=O)N[C@@H](Cc1ccc(O)cc1)C(=O)NCCCCCCCCCNCCCCCCN was tested. Which Ki [2] did it give?
**A.** Its Ki is 0.037 µM.

**Q.** And the IC50 [3]?
**A.** Its IC50 is 0.086 µM.

**Q.** How did the Ki [2] turn out when CCCC(=O)N[C@@H](Cc1ccc(O)cc1)C(=O)NCCCCCCCNCCCCN was run?
**A.** The Ki was 0.168 µM.

**Q.** And the IC50 [3]?
**A.** The IC50 was 0.138 µM.

**Q.** Which Ki [1] does the source give for CCCC(=O)N[C@@H](Cc1ccc(O)cc1)C(=O)NCCCCCNCCCCCCCCN here?
**A.** Its Ki is 0.037 µM.

**Q.** What about the Ki [2] of the same compound?
**A.** Its Ki is 0.33 µM.

**Q.** And the IC50 [3]?
**A.** Its IC50 is 0.16 µM.

**Q.** And the Ki [4]?
**A.** Its Ki is 2.3 µM.

**Q.** Which Ki [1] does the source give for CCCC(=O)N[C@@H](Cc1ccc(O)cc1)C(=O)NCCCCCNCCCN here?
**A.** The Ki was 0.014 µM.

**Q.** What about the Ki [2] of the same compound?
**A.** Its Ki is 0.063 µM.

**Q.** And the IC50 [3]?
**A.** Its IC50 is 1.1 µM.

**Q.** What about the Ki [4] of the same compound?
**A.** The Ki was 0.27 µM.

**Q.** Which Ki [2] does the source give for CCCC(=O)N[C@@H](Cc1ccc(O)cc1)C(=O)NCCCCCCCCCNCCN here?
**A.** Its Ki is 0.41 µM.

**Q.** What about the IC50 [3] of the same compound?
**A.** Its IC50 is 0.122 µM.

**Q.** For CCCC(=O)N[C@@H](Cc1ccc(O)cc1)C(=O)NCCCCCNCCN, which Ki [1] is on record?
**A.** Its Ki is 0.14 µM.

**Q.** And the Ki [2]?
**A.** Its Ki is 0.41 µM.

**Q.** And the IC50 [3]?
**A.** Its IC50 is 12.3 µM.

**Q.** What about the Ki [4] of the same compound?
**A.** The Ki was 1.5 µM.
